One series can be described thus: Solubility at pH 2. In kind it is physicochemical.
A further series has as its target T1, GR (Homo sapiens, UniProt P04150).
T1 sequence (P04150 1-777): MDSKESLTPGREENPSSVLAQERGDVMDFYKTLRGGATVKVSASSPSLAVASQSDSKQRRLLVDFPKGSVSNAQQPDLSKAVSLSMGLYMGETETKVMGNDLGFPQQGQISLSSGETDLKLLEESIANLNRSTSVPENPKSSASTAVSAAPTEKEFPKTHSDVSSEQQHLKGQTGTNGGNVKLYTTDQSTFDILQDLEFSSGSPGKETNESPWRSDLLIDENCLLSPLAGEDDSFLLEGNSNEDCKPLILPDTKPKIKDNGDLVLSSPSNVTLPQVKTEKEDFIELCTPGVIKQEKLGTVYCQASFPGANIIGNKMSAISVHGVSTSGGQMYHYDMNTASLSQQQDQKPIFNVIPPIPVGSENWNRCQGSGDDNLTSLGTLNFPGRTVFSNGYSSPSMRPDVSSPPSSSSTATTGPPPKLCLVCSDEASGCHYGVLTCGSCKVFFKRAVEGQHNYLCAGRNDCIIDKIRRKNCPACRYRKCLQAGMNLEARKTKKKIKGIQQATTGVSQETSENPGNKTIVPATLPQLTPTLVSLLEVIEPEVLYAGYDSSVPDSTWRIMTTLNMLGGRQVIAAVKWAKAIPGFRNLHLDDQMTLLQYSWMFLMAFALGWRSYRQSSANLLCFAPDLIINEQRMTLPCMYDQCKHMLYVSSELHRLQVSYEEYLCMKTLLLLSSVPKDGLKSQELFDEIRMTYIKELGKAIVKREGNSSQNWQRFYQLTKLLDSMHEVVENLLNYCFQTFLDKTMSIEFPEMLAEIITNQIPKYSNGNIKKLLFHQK
The experiment in a line: GR Ligand Binding Assay (GR BIND), HeLa cell lysate, 3H-DEX. Also noted: endogenous in cells; host or cells: HeLa (ATCC) cell lysate supernatant. The procedure:
Binding Buffer: TEGM (10 mM Tris-HCl, 1 mM EDTA, 10% glycerol, 1 mM beta-mecaptoethanol, 10 mM Sodium Molybdate, pH 7.2)
Phenol red-free Trypsin-EDTA is diluted in the same PBS 1:10. The cell layers are rinsed with 1× Trypsin, extra Trypsin is poured out, and the cell layers are incubated at 37° C. for ˜2 min. The flask is tapped and checked for signs of cell detachment. Once the cells begin to slide off the flask, the complete media is added. The cells are counted at this point, then diluted to the appropriate concentration and split into flasks or dishes for further culturing (Usually 1:3 to 1:6 dilution).
The cell pellet is washed twice with TEGM (10 mM Tris-HCl, 1 mM EDTA, 10% glycerol, 1 mM beta-mercaptoethanol, 10 mM Sodium Molybdate, pH 7.2). […] The cell suspension is snap frozen in liquid nitrogen or ethanol/dry ice bath and transferred to −80° C. freezer on dry ice. Before setting up the binding assay, the frozen samples are left on ice-water to just thaw (˜1 hr). Then the samples are centrifuged at 12,500 g to 20,000 g for 30 min at 4° C. The supernatant is used to set-up assay right away. If using 50 μL of supernatant, the test compound can be prepared in 50 μL of the TEGM buffer.
1×TEGM buffer is prepared, and the isotope-containing assay mixture is prepared in the following order: EtOH (2% final concentration in reaction), 3H-DEX (Amersham Biosciences) and 1×TEGM. [e.g. For 100 samples, 200 μL (100×2) of EtOH+4.25 μL of 1:10 3H-Dex stock+2300 μL (100×23) 1×TEGM]. The compound is serially diluted, e.g., if starting final conc. is 1 μM, and the compound is in 25 μL of solution, for duplicate samples, 75 μL of 4×1 μM solution is made and 3 μL of 100 μM is added to 72 μL of buffer, and 1:5 serial dilution.
25 μL of 3H-DEX (6 nM) trace and 25 μl, compound solution are first mixed together, followed by addition of 50 μL receptor solution. The reaction is gently mixed, spun briefly at about 200 rpm and incubated at 4° C. overnight. 100 μL of 50% HAP slurry is prepared and added to the incubated reaction which is then vortexed and incubated on ice for 5 to 10 minutes. The reaction mixture is vortexed twice more to resuspend HAP while incubating reaction. The samples in 96-well format are then washed in wash buffer using The FilterMate™ Universal Harvester plate washer (Packard). The washing process transfers HAP pellet containing ligand-bound expressed receptor to Unifilter-96 GF/B filter plate (Packard). The HAP pellet on the filter plate is incubated with 50 μL of MICROSCINT (Packard) scintillint for 30 minutes before being counted on the TopCount microscintillation counter (Packard). IC50s are calculated using DEX as a reference.

The mark [1] stands for this setting: pH 2, aqueous buffer, pH 2, read-out: Solubility At pH 2.
The mark [2] stands for this setting: HeLa cell lysate, 3H-DEX, read-out: GR BIND Ki.
[3] abbreviates: pH 2, read-out: Solubility At pH 2.
Setting [4] is: Table 4, literature compounds, read-out: GR BIND.

Structures are written as SMILES. pKi: −log10 of the molar value. In brackets after ≈: the same amount, converted by molar mass. Like-named read-outs stand apart in the source and are kept apart here. Where only a bound is given, the exact number is not on record here.

This passage reports solubility and Ki results from US20120214846A1, “HEXAHYDROCYCLOPENTYL[F]INDAZOLE PYRIDYL ETHANOLS AND DERIVATIVES THEREOF AS SELECTIVE GLUCOCORTICOID RECEPTOR MODULATORS” (MERCK SHARP & DOHME CORP, priority 2009, published 2012).

Broadly, the solubility is how much of the substance goes into solution per volume.

With `Cc1cccnc1C(O)C[C@]1(O)CCC2=Cc3c(cnn3-c3ccc(F)cc3)C[C@@]21C` (single isomer, unassigned) [Example 1a], the solubility in the series “Solubility at pH 2” (setting [1]) was 148 µM (≈ 62.1 µg/mL). Further, the pKi on GR (setting [2]) was 8.17. The matching figures for `COc1ccnc(C(O)C[C@]2(O)CCC3=Cc4c(cnn4-c4ccc(F)cc4)C[C@@]32C)c1` (stereo partly drawn) [Example 3, (4αS,5R)-1-(4-fluorophenyl)-5-[2-hydroxy-2-(4-methoxypyridin-2-yl)ethyl]-4α-methyl-1,4,4α,5,6,7-hexahydrocyclopenta[f]indazol-5-ol]: 174 µM (≈ 75.8 µg/mL) and 8.36. For `C[C@]12Cc3cnn(-c4ccc(F)cc4)c3C=C1CC[C@@]2(O)CC(O)c1ccccn1` (single isomer, unassigned) [Example 2b], the solubility in the series “Solubility at pH 2” (setting [3]) is recorded as 192 µM (≈ 77.9 µg/mL). Besides, the pKi on GR (setting [2]) was 8.19. As to `C[C@]12Cc3cnn(-c4ccc(F)cc4)c3C=C1CCC[C@@H]2[C@@H](O)Cc1ccccc1` [Ex. 22 WO 03/086294 A2, reference compound], the solubility entry in “Solubility at pH 2” (Table 4, literature compounds) is “poor”. Further, at GR (setting [4]), the pKi was 8.90.

As for `C[C@]12Cc3cnn(-c4ccc(F)cc4)c3C=C1CC[C@@]2(O)CC(O)c1cc(Cl)ccn1` (single isomer, unassigned) [Example 8b], the solubility in “Solubility at pH 2” (setting [3]) is reported as 119 µM (≈ 52.4 µg/mL). In addition, the pKi at GR (setting [2]) is 8.68. `C[C@]12Cc3cnn(-c4ccc(F)cc4)c3C=C1CC[C@@]2(O)C#Cc1ccccc1` [Ex. 1 WO 04/075840 A2, reference compound]: the solubility result in the series “Solubility at pH 2” (Table 4, literature compounds) is “poor”. The pKi at GR (setting [4]) is 8.93. In the case of `C[C@]12Cc3cnn(-c4ccc(F)cc4)c3C=C1CC[C@@]2(O)CC(O)c1ccc(F)cn1` (single isomer, unassigned) [Example 7b], in “Solubility at pH 2” (setting [3]), the solubility came out at 35 µM (≈ 14.8 µg/mL). Further, on GR (setting [2]), the pKi was 8.32. The corresponding values for `C[C@]12Cc3cnn(-c4ccc(F)cc4)c3C=C1CC[C@@]2(O)CC(O)c1cc(Cl)ccn1` (single isomer, unassigned) [Example 8a] are <1 µM and 8.30.

In the case of `C[C@]12Cc3cnn(-c4ccc(F)cc4)c3C=C1CC[C@@]2(O)CC(O)c1cc(C(F)(F)F)ccn1` (single isomer, unassigned) [Example 5b], in the series “Solubility at pH 2” (setting [3]), the solubility came out at 3 µM (≈ 1.42 µg/mL). The pKi on GR (setting [2]) is 8.37. In the case of `Cc1ccnc(C(O)C[C@]2(O)CCC3=Cc4c(cnn4-c4ccc(F)cc4)C[C@@]32C)c1` (stereo partly drawn) [Example 11, (4αS,5R)-1-(4-fluorophenyl)-5-[2-hydroxy-2-(4-methylpyridin-2-yl)ethyl]-4α-methyl-1,4,4α,5,6,7-hexahydrocyclopenta[f]indazol-5-ol], the solubility in “Solubility at pH 2” (setting [1]) came to 193 µM (≈ 81 µg/mL). In addition, the pKi on GR (setting [2]) was 8.41. The corresponding values for `C[C@]12Cc3cnn(-c4ccc(F)cc4)c3C=C1CC[C@@]2(O)CC(O)c1cc(C#N)ccn1` (stereo partly drawn) [Example 9, 2-{2-[(4αS,5R)-1-(4-fluorophenyl)-5-hydroxy-4α-methyl-1,4,4α,5,6,7-hexahydrocyclopenta[f]indazol-5-yl]-1-hydroxyethyl}pyridine-4-carbonitrile] are 104 µM (≈ 44.8 µg/mL) and 8.68.

For the compound `C[C@]12Cc3cnn(-c4ccc(F)cc4)c3C=C1CC[C@@]2(O)CC(O)c1cc(Br)ccn1` (single isomer, unassigned) [Example 10b], the solubility in “Solubility at pH 2” (setting [3]) came out at 2 µM (≈ 0.969 µg/mL). Also, at GR (setting [2]), the pKi was 8.77. The corresponding values for `C[C@]12Cc3cnn(-c4ccc(F)cc4)c3C=C1CC[C@@]2(O)CC(O)c1cc(C(F)(F)F)ccn1` (single isomer, unassigned) [Example 5a] are 18 µM (≈ 8.52 µg/mL) and 8.59. As for `C[C@]12Cc3cnn(-c4ccc(F)cc4)c3C=C1CC[C@@]2(O)CC(O)c1ncccc1F` (stereo partly drawn) [Example 4, (4αS,5R)-1-(4-fluorophenyl)-5-[2-(3-fluoropyridin-2-yl)-2-hydroxyethyl]-4α-methyl-1,4,4α,5,6,7-hexahydrocyclopenta[f]indazol-5-ol], in the series “Solubility at pH 2” (setting [1]), the solubility was < 1 µM. In addition, at GR (setting [2]), the pKi is 8.14. `C[C@]12Cc3cnn(-c4ccc(F)cc4)c3C=C1CCC[C@@H]2[C@@H](O)c1ccccc1` [Ex. 35 WO 03/86294 A2, reference compound]: the solubility result in “Solubility at pH 2” (Table 4, literature compounds) is “poor”. Moreover, at GR (setting [4]), the pKi is 8.93. The corresponding values for `C[C@]12Cc3cnn(-c4ccc(F)cc4)c3C=C1CCC[C@@H]2[C@@H](O)CCc1ccccc1` [Ex. 30 WO 03/086294 A2, reference compound] are “poor” and 8.92. In the case of `C[C@]12Cc3cnn(-c4ccc(F)cc4)c3C=C1CC[C@@]2(O)CC(O)c1cc(Br)ccn1` (single isomer, unassigned) [Example 10a], the solubility in the series “Solubility at pH 2” (setting [3]) is 7 µM (≈ 3.39 µg/mL). Further, the pKi at GR (setting [2]) was 8.47.

In the case of `C[C@]12Cc3cnn(-c4ccc(F)cc4)c3C=C1CC[C@@]2(O)CC(O)c1ccccn1` (single isomer, unassigned) [Example 2a], the solubility in “Solubility at pH 2” (setting [1]) turned out to be 105 µM (≈ 42.6 µg/mL). The pKi on GR (setting [2]) is 7.93. `C[C@]12Cc3cnn(-c4ccc(F)cc4)c3C=C1CC[C@@]2(O)CC(O)c1ccc(C(F)(F)F)cn1` (stereo partly drawn) [Example 6, (4αS,5R)-1-(4-fluorophenyl)-5-{2-hydroxy-2-[5-(trifluoromethyl)pyridin-2-yl]ethyl}-4α-methyl-1,4,4α,5,6,7-hexahydrocyclopenta[f]indazol-5-ol]: the solubility in “Solubility at pH 2” (setting [1]) was 4 µM (≈ 1.89 µg/mL). The pKi at GR (setting [2]) was 8.57. The matching figures for `C[C@]12Cc3cnn(-c4ccc(F)cc4)c3C=C1CC[C@@]2(O)CC(O)c1ccc(F)cn1` (single isomer, unassigned) [Example 7a]: 64 µM (≈ 27.1 µg/mL) and 7.97. For `Cc1cccnc1C(O)C[C@]1(O)CCC2=Cc3c(cnn3-c3ccc(F)cc3)C[C@@]21C` (single isomer, unassigned) [Example 1b], the pKi on GR (setting [2]) is 8.41. `CO[C@@]1(CCc2ccccc2Cl)CCC2=Cc3c(cnn3-c3ccc(F)cc3)C[C@@]21C` [Ex. 103 WO 04/075840 A2, reference compound]: the solubility result in “Solubility at pH 2” (Table 4, literature compounds) is “poor”. In addition, on GR (setting [4]), the pKi is 9.64.
